Experimental data published in patent US20130289056A1, “METHODS OF ADMINISTERING AN EGFR INHIBITOR” (Boehringer Ingelheim International GmbH, priority 2010, published 2013).
pKi: −log10 of the molar value.

Tests used:
[1] = system: CaCo-2 cell layers; test: Passive permeability through CaCo-2 cell layers; assay type: in vitro ADME
Source text: (§1) Passive Permeability through CaCo-2 Cell Layers and P-gp Transport Profiling: […]

[2] = in vivo; cited from earlier work
[3] = molecular target: T1, P-glycoprotein (a.k.a. MDR1, ABCB1) (Homo sapiens, UniProt P08183); test: P-gp transport profiling (substrate); assay type: in vitro ADME; conditions: in vitro
Source text: as §1

[4] = molecular target: P-glycoprotein (MDR1, ABCB1) (Homo sapiens, UniProt P08183); test: P-gp transport profiling (substrate); assay type: in vitro ADME; conditions: human, Caco-2 cell layers; estimated
Source text: as §1

[5] = Phase I two-way crossover trial: effect of ritonavir on pharmacokinetics of BIBW 2992
[6] = molecular target: T1, P-glycoprotein (a.k.a. MDR1, ABCB1); test: Inhibition of P-gp by BIBW 2992; assay type: in vitro ADME; conditions: mean of two independent experiments; read-out: estimated Ki as inhibitor of P-gp
Source text: as §1

[7] = molecular target: T2, CYP3A4 (Homo sapiens, UniProt P08684); test: CYP3A4-catalysed metabolism of BIBW 2992 in vivo (previous studies)
T2 construct: host or cells: healthy volunteers (in vivo)
T2 sequence (P08684 whole entry): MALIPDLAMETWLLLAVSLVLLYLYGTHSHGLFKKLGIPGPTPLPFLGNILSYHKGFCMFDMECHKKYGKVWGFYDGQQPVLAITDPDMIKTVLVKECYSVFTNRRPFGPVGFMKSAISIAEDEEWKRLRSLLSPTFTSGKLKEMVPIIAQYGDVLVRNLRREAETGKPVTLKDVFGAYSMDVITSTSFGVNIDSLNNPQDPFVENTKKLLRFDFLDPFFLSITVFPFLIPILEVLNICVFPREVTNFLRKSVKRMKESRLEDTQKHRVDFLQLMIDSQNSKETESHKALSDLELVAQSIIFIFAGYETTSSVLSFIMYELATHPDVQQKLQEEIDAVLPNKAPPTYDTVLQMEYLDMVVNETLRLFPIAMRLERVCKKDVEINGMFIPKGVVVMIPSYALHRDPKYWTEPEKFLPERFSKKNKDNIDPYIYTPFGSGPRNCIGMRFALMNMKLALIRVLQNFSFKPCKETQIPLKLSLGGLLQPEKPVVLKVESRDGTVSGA

T1 sequence (P08183 whole entry): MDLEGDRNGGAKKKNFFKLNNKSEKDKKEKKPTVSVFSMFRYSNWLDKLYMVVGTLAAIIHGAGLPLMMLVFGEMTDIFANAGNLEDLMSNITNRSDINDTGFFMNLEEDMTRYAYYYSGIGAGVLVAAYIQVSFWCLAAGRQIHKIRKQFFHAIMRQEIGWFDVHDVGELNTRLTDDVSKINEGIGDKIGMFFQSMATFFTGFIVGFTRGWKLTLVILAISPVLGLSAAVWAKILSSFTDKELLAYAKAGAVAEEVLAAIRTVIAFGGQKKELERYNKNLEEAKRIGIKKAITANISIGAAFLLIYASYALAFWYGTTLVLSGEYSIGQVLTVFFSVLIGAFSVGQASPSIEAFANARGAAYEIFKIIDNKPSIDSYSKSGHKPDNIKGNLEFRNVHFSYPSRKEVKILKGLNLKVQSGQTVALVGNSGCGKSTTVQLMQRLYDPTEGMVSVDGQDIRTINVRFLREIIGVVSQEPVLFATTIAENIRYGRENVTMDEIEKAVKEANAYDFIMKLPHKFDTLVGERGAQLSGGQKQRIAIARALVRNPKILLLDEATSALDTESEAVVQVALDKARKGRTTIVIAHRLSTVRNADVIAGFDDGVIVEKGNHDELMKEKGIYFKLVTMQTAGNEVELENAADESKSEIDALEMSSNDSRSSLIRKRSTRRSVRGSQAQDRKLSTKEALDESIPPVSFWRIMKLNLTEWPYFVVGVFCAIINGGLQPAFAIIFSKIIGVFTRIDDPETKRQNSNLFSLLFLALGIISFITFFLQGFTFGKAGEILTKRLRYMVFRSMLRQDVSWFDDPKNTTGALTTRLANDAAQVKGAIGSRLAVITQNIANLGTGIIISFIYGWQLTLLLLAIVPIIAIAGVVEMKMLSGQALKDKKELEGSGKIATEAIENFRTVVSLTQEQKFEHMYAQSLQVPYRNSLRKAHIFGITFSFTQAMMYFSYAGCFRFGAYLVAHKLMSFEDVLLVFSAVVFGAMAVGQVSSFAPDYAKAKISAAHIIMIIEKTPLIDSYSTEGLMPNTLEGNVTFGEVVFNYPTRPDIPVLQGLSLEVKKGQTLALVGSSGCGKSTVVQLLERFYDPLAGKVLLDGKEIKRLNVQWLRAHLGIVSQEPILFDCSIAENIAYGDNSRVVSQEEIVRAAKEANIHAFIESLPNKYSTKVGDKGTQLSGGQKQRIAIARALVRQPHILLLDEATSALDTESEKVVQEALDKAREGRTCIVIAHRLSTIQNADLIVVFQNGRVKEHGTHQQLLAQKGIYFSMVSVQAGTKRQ
P-glycoprotein (MDR1, ABCB1), sequence (P08183 whole entry): as above

passive permeability [1]: high | P-gp substrate status [3]: substrate of P-gp | Km [4]: 10 to 30 µM | AUC0-∞ increase compared with BIBW 2992 given alone ([5]; BIBW 2992 20 mg oral with ritonavir 200 mg twice daily, healthy male volunteers, 90% CI 133.7%, 162.9%): 47.6% | AUC0-tz increase compared with BIBW 2992 given alone ([5]; BIBW 2992 20 mg oral with ritonavir 200 mg twice daily, healthy male volunteers, 90% CI 134.5%, 165.1%): 49.0% | Tmax ([5]; male, human, in vivo, oral, 20 mg): 4 h | terminal half-life, effect of ritonavir cotreatment ([5]; with ritonavir 200 mg bid vs alone): unchanged | pKi [6]: 5.47 | CYP3A4-dependent N-demethylation ([7]; healthy volunteers): too low to be quantitatively detected | role of CYP3A4 enzyme-catalysed metabolic reactions for metabolism ([7]; in vivo): subordinate role
Structure (SMILES): CN(C)C/C=C/C(=O)Nc1cc2c(Nc3ccc(F)c(Cl)c3)ncnc2cc1O[C@H]1CCOC1.O=C(O)/C=C\C(=O)O.O=C(O)/C=C\C(=O)O [BIBW 2992, 4-[(3-chloro-4-fluorophenyl)amino]-6-{[4-(N,N-dimethylamino)-1-oxo-2-buten-1-yl]amino}-7-((S)-tetrahydrofuran-3-yloxy)-quinazoline]
dose dependence of exposure [2]: more than dose-proportional increase in exposure
